Assay [1] relates to DLBCL patients. Briefly: Overall survival of DLBCL patients by gapdh mRNA level. Format: in vivo, human. The text has this:
Thirteen patients who underwent biopsy for DLBCL between May 2007 and May 2011 at the Saint-Louis Hospital (Department of Onco-hematology, Hopital Saint-Louis, Paris, France) were selected. The patients received the necessary information concerning the study and consent was obtained. Morphologic classification of the tumors was assigned according to the World Health Organization (WHO) criteria (Campo et al., 2011). The tumors extensions were staged according to the Ann Arbor stage, and all patients were scored by IPIaa (project, 1993). Follow-up data for all the patients were collected regularly. Among these patients, 8 relapsed (61.5%) and 6 (46%) died.
Data are expressed as mean±standard deviation (SD). Differences in the calculated mean between each group were analyzed using Fisher test (quantitative variable). Survival functions were estimated by the Kaplan-Meier method and compared by the log-rank test. A P value of 0.05 or less was considered to indicate statistical significance. Kaplan-Meier survival curves and box plot representations were performed using “R” software.
[…] was measured from the date of diagnosis to that of death from any cause or to the stopping date. When the latter date was not reached, the data were censored at the date of the last follow-up evaluation. […]

Assay [2] concerns GAPDH. Put plainly: Measurement of GAPDH activity. Type of assay: biochemical. The note with it: non-toxic doses. How it is done:
Cells were lysed in a buffer containing 10 mmol/L HEPES (pH 7.4), 150 mmol/L NaCl, 5 mmol/L EDTA, 1% NP40, 10 μg/mL aprotinin, 1 mmol/L phenylmethylsulfonyl fluoride and 10 mmol/L leupeptin (buffer A). Lysates were standardized for protein content and incubated with 0.25 mmol/L NAD, 3.3 mmol/L DTT, 13 mmol/L Na4P2O7 (pH 8.5), 26 mmol/L sodium arsenate, and 25 mmol/L D-glyceraldehyde-3-phosphate in a black 96-well plate (Cellstar). GAPDH activity was measured on a fluoroscan at 445 nm as the increase in fluorescence related to NADH accumulation. Activity is expressed as the change in absorbance per milligram of protein.

Assay [3] concerns HIF-1. Put plainly: HIF-1 activity luciferase assay. Type of assay: cell-based. The settings on record: non-toxic doses; hypoxia. How it is done:
HIF-1 activity. HeLa cells stably expressing the p3HRE-Dptk-LUC vector, which contain three copies of the hypoxia-responsive element (HRE) from the erythropoietin gene (Dayan et al., 2006), were transiently transfected (calcium phosphate) with control vector (pMIG or empty pSUPER vector) or vectors (2 μg) to either overexpress or to silence GAPDH. The following day, transfected cells were exposed to normoxia or hypoxia 1% O2 for 24 hours before cell lysis in a reporter lysis buffer (Promega). It is worth noting that for determination of HIF-1 activity in hypoxia, cells were directly lysed in the hypoxic chamber). The luciferase assay was performed as previously described (Jacquin et al., 2013).

Assay [4] concerns HIF-1α. Briefly: HIF-1α protein expression (Western blot). Type of assay: cell-based. The note with it: non-toxic doses; hypoxia. How it is done:
Briefly, after exposure to normoxia or hypoxia, cells were washed and lysed in laemmli buffer. Cells exposed to hypoxia were lysed in the hypoxic chamber. Proteins (40 μg) were separated on 8% to 12% SDS polyacrilamide gels and transferred onto polyvinylidene difluoride membranes (Millipore). Membranes were then blotted with antibody corresponding to the indicated proteins. Immunoreactive bands were detected with a horseradish peroxidase (HRP) anti-mouse (Dako) or anti-rabbit (Cell Signaling) by enhanced chemiluminescence (Pierce). When indicated, Western blot quantification was made using ImageJ software.

Assay [5] deals with NF-κB. Briefly: Electrophoretic mobility shift assay (EMSA) of NF-κB binding in Raji cells. Format: cell-based, human. The settings on record: hypoxia 1% O2 24 hours, 0.2 μg/ml. How it is done:
Total cell extracts from Raji cells treated or not with 0.2 μg/ml of KA and exposed to normoxia or hypoxia 1% O2 for 24 hours were prepared as previously described (Bottero et al., 2003). For mobility shift assay, a NF-κB probe consisting of a synthetic double stranded oligonucleotide containing the KB binding site of the Igκ promoter was used. The end-labeled probe (T4 kinase) was incubated with extracts samples for 20 minutes at 30° C. Complexes were separated by electrophoresis on a 5% non-denaturating polyacrylamide gel in 0.5×TBE. Dried gels were subjected to autoradiography.

Assay [6] deals with NF-κB. Put plainly: NF-κB activity luciferase assay. Type of assay: cell-based. How it is done: HeLa cells stably expressing GAPDH-V5 or GAPDH double mutant (DM-V5) control (pMIG) were transiently co-transfected by the classical calcium phosphate method with 0.5 μg of a vector encoding cFP and 2 μg of a luciferase reporter gene controlled by a minimal tk promoter ans sex reiterated KB sites (icBx6 tk luc). Forty-eight hours after transfection, cells were exposed to either normoxia or hypoxia 1% O2 for 24 hours before harvesting and analyzing as previously described (Bottero et al., 2003).

Assay [7] relates to GAPDH-TRAF2 interaction. Briefly: GAPDH-TRAF2 co-immunoprecipitation in cells cultured in hypoxia. Format: cell-based. The note with it: Eμ-Myc and HeLa cells. Here is the method: (§1) Protein G Sepharose 4B beads (Invitrogen, CA, USA) were first incubated with rabbit anti-TRAF2 or mouse anti-GAPDH antibody or IgG control (Santacruz, Calif., USA) for 4 hours at 4° C. Beads were then incubated overnight with 1 mg of precleared protein lysed in 20 mM Tris-HCl, pH 7.4, 137 mM NaCl, 1 mM EGTA, 10% glycerol, 1% Triton X-100, 1.5 mM MgCl2, 1 μg/μl PMSF, protease and phosphatase inhibitor cocktail (Thermo Scientific). Samples were then washed five times, boiled in Laemmli buffer and analyzed by immunoblotting with the indicated antibodies

In assay [8] the target is T1, GAPDH/TRAF2 interaction (Mus musculus, UniProt P16858).
T1 construct: from tissue; lymph node tumors are collected elsewhere in the text
T1 sequence (P16858 whole entry): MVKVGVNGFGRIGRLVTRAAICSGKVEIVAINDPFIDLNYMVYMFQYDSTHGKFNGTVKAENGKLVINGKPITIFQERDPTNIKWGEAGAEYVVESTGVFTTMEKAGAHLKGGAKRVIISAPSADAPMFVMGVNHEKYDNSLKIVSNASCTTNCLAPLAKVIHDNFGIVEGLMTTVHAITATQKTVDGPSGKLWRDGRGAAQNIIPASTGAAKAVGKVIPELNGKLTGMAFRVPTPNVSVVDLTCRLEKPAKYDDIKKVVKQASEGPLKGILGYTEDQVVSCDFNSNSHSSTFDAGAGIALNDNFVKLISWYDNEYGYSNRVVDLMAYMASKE
Put plainly: GAPDH/TRAF2 co-immunoprecipitation in tissues of Eμ-Myc bearing mice. Format: in vivo. The note with it: 24 hours after treatment. How it is done: as §1, with “Consequently, we investigated GAPDH-TRAF2 binding in Eμ-Myc and HeLa cells and evidenced that GAPDH could be co-immunprecipitated with TRAF2 when cells are cultured in hypoxia. […] We further tested this interaction in vivo. For that matter Eμ-Myc bearing mice were treated once with PBS or with the covalent inhibitor koningic acid (i.p) and GAPDH/TRAF2 interaction was investigated by co-immunoprecipation in tissues, 24 hours after treatment. […] Protein” for “Protein”

Assay [9] deals with hif-1α mRNA. Put plainly: hif-1α mRNA in vivo (qPCR). The settings on record: 5 mg/kg. Further details: species or system mouse. How it is done: Consequently, we investigated GAPDH-TRAF2 binding in Eμ-Myc and HeLa cells and evidenced that GAPDH could be co-immunprecipitated with TRAF2 when cells are cultured in hypoxia. […] We further tested this interaction in vivo. For that matter Eμ-Myc bearing mice were treated once with PBS or with the covalent inhibitor koningic acid (i.p) and GAPDH/TRAF2 interaction was investigated by co-immunoprecipation in tissues, 24 hours after treatment.
(§2) Total RNA was extracted from cells using the RNA extraction kit (Qiagen) according to the manufacturer's instructions. Total RNA (2 μg) was added to 20 μl reverse transcription-PCR using the Omniscript kit (Qiagen). The relative mRNA expression level of gapdh, hif-1α, ca9, vegf-α, ldh-a (mouse and human) were obtained by real-time quantification PCR (qPCR), using the TaqMan PCR Master Mix (Eurogentec) and TaqMan assay primer set (Applied Biosystems, Foster City, Calif.) on the 7500 Fast and the Step One (Applied Biosystems) according to the manufacturer's instructions (sequences provided upon request). For in vitro experiment, all samples were normalized to rplp0. All mRNA samples from human tumor tissues were normalized by ppia (cyclophilin-a).

Assay [10] relates to ms4a1 (CD20 encoding gene). Briefly: ms4a1 expression in lymphoma bearing mice. The settings on record: in vivo inhibition of GAPDH. Further details: species or system mouse. Here is the method: To get deeper into the mechanism of CD20 expression, we observed that upon 24 hours of hypoxia, primary Eμ-Myc cells are showing a 2-fold increase in mRNA level of ms4a1 when compared to normoxia. […] We then confirmed the effects of hypoxia on CD20 cell surface expression using the human Burkitt's lymphoma cell line Raji.
as §2

Assay [11] relates to CD20 cell surface expression. Put plainly: CD20 cell surface expression by flow cytometry in Raji cells. Type of assay: cell-based, human. The settings on record: hypoxia 1% O2 48 h, non-toxic doses (0.1 μg/ml). How it is done: Cells (0.5·10^6) cells (in triplicate) were washed 1×PBS and incubated at 4° C. with the monoclonal anti-CD20 (Affymetrix eBioscience) at a concentration of 2.5 μg/ml for 45 minutes. IgG isotypic controls were included. Cells were then washed 2×PBS and incubated at 4° C. for 30 minutes in the dark with a anti-mouse Alexa 488 (1 μg/ml). Then cells were washed twice in PBS and resuspend in 100 μl of PBS containing 0.5 μg/ml of DAPI (4′,6-diamidino-2-phenylindole). Ten thousand events were analyzed immediately by flow cytometry using a MACSQuant Analyzer (Miltenyi Biotec). The mean fluorescence intensity (MFI) obtained for lived (DAPI negative) CD20 positive cells was reported. Histograms represent the average of three independent experiments.
A total of 1×10^6 cells were washed in PBS and incubated for 45 minutes at 4° C. with the monoclonal anti-CD20 antibody (2.5 μg/ml) (Affymetrix eBioscience). The cells were then washed in PBS and incubated at 4° C. for 30 minutes with an anti-mouse Alexa Fluor 488 (1 μg/ml). […] After washing twice in the saponine-containing buffer, the cells are resuspended in PBS/2% FCS and analyzed by flow cytometry. Immediately afterwards, 10,000 events were analyzed by flow cytometry using a MACSQuant Analyzer (Miltenyi Biotec). The mean fluorescence intensity (MFI) obtained for CD20-low, CD20-high, GAPDH-low, GAPDH-high cells, was reported.

As to “Rituximab-based chemotherapy: anti-CD20 monoclonal antibody rituximab given with chemotherapy to DLBCL patients upon diagnosis”, the entries for the “patients still alive 350 days following the diagnosis” value in [1] ("low" gapdh group) and in assay [1] (DLBCL with "high" levels of gapdh mRNA) were 33% and 100%, respectively.
Regarding `CC(C)[C@H]1CC[C@@]2(CO2)[C@H]2C(=O)OCC(C(=O)O)=C[C@H]12` [Koningic acid], in assay [2], the “reduction of GAPDH activity” value is 50-60%. Moreover, the HIF-1 activity result in assay [3] is given as “decrease in HIF-1 activity”. Moreover, the HIF-1α expression result in assay [4] was “decrease”. For the same compound, the “NF-κB binding to its consensus sequence” value in [5] is recorded as “reduced its binding in hypoxia”. Besides, in assay [6] (hypoxic HeLa cells), the NF-κB transcriptional activity result was “prevented NF-κB transcriptional activity”. Besides, in [6] (specific and partial inhibition of GAPDH in hypoxia), the NF-κB activity result was “decreases NF-κB activity”. Also, the GAPDH-TRAF2 interaction result in assay [7] is given as “loss of GAPDH-TRAF2 interaction”. In addition, the “GAPDH/TRAF2 interaction in vivo” value in [8] (0.5 mg/kg i.p. once) was “inactive dose”; in [8] (5 mg/kg i.p. once), “reduced the interaction”. For the same compound, in [9], the “hif-1α mRNA in vivo” value is reported as “reduced hif-1α mRNA”. In assay [10], the ms4a1 expression result is “reduction in ms4a1 expression”. Moreover, the “hypoxic-dependent increase in CD20 cell surface expression” value in assay [11] is listed as “prevented this hypoxic-dependent increase in CD20 expression”.

For the origin of these results see patent US9879325B2, “Method for predicting the responsiveness a patient to a treatment with an anti-CD20 antibody” (ASSISTANCE PUBLIQUE—HÔPITAUX DE PARIS, priority 2014, dated 2018).
